This note sets out measurements from patent publication US20040086901A1, “Database for analyzing gene function and method of analyzing gene function by dspa” (priority 2000, published 2004).

Holding throughout (type): cell-based, mouse
Experiment [1] relates to NIH3T3 cells overexpressing Ha-ras. Description: MTT cell viability, drug sensitivity of Ha-ras overexpressing cells vs parental line. To be noted: Ha-ras high-expressing cells / parental cell line, 3 to 4 days. Put shortly: (§1)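 MTT viability of transfected versus parental NIH3T3 after 3–4 days in twofold drug dilution series; values are log ratios of IC40.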
Experiment [2] concerns NIH3T3 cells overexpressing Ki-ras. Put plainly: MTT cell viability, Ki-ras overexpressing cells vs parental line. As to conditions: Ki-ras high-expressing cells / parental cell line, 3 to 4 days. Summed up:
(§2)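 Stable NIH3T3 transfectants (cDNA in pRc-CMV-type vector, G-418-selected, high expressers picked by Western blot) and parental cells were seeded at 1×10^5 cells/ml into twofold serial drug dilutions and grown 3–4 days. MTT formazan was read at 574/655 nm, and log ratios of IC40 values were derived.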

In experiment [3] the test system is NIH3T3 cells overexpressing N-ras. Description: MTT cell viability, N-ras overexpressing cells vs parental line. To be noted: N-ras high-expressing cells / parental cell line, 3 to 4 days. Put shortly: as §2
For experiment [4], the system named is NIH3T3 cells overexpressing p16/INK4A. Put plainly: MTT cell viability, p16/INK4A overexpressing cells vs parental line. As to conditions: p16/INK4A high-expressing cells / parental cell line, 3 to 4 days. Summed up:
as §2

The test system of experiment [5] is NIH3T3 cells overexpressing m-calpain. Description: MTT cell viability, m-calpain overexpressing cells vs parental line. As to conditions: m-calpain high-expressing cells / parental cell line, 3 to 4 days. Summed up:
as §1

Experiment [6] has as its system NIH3T3 cells overexpressing Regucalcin. Put plainly: MTT cell viability, Regucalcin overexpressing cells vs parental line. As to conditions: Regucalcin high-expressing cells / parental cell line, 3 to 4 days. Put shortly:
as §2

The subject of experiment [7] is NIH3T3 cells overexpressing cystatin E. Description: MTT cell viability, cystatin E overexpressing cells vs parental line. As to conditions: cystatin E high-expressing cells / parental cell line, 3 to 4 days. Summed up: as §2
The subject of experiment [8] is NIH3T3 cells overexpressing caspase-1. Description: MTT cell viability, caspase-1 overexpressing cells vs parental line. To be noted: caspase-1 high-expressing cells / parental cell line, 3 to 4 days. Summed up: as §1
The subject of experiment [9] is NIH3T3 cells overexpressing caspase-3. Put plainly: MTT cell viability, caspase-3 overexpressing cells vs parental line. As to conditions: caspase-3 high-expressing cells / parental cell line, 3 to 4 days. Summed up:
as §1

Experiment [10] deals with NIH3T3 cells overexpressing caspase-2. Description: MTT cell viability, caspase-2 overexpressing cells vs parental line. As to conditions: caspase-2 high-expressing cells / parental cell line, 3 to 4 days. Summed up: as §2
Experiment [11] concerns NIH3T3 cells overexpressing PDGF-R. Put plainly: MTT cell viability, PDGF-R overexpressing cells vs parental line. As to conditions: PDGF-R high-expressing cells / parental cell line, 3 to 4 days. Summed up:
as §2

The subject of experiment [12] is NIH3T3 cells overexpressing CBP8. Put plainly: MTT cell viability, CBP8 overexpressing cells vs parental line. To be noted: CBP8 high-expressing cells / parental cell line, 3 to 4 days. Summed up:
as §2

For experiment [13], the system named is NIH3T3 cells overexpressing PKCalpha-KN. Put plainly: MTT cell viability, PKCalpha-KN overexpressing cells vs parental line. As to conditions: 3 to 4 days. Put shortly: as §1
Experiment [14] concerns NIH3T3 cells overexpressing p38-DN. Put plainly: MTT cell viability, p38-DN overexpressing cells vs parental line. To be noted: p38-DN high-expressing cells / parental cell line, 3 to 4 days. Put shortly: as §1
The test system of experiment [15] is NIH3T3 cells overexpressing HSP4O. Description: MTT cell viability, HSP4O overexpressing cells vs parental line. To be noted: HSP4O high-expressing cells / parental cell line, 3 to 4 days. Put shortly: as §2
Experiment [16] concerns NIH3T3 cells overexpressing CaMKIIa. Description: MTT cell viability, CaMKIIa overexpressing cells vs parental line. As to conditions: CaMKIIa high-expressing cells / parental cell line, 3 to 4 days. Put shortly: as §1
In experiment [17] the test system is NIH3T3 cells overexpressing HNF1. Put plainly: MTT cell viability, HNF1 overexpressing cells vs parental line. To be noted: HNF1 high-expressing cells / parental cell line, 3 to 4 days. Put shortly: as §1
Experiment [18] deals with NIH3T3 cells overexpressing HNF3b. Put plainly: MTT cell viability, HNF3b overexpressing cells vs parental line. To be noted: HNF3b high-expressing cells / parental cell line, 3 to 4 days. Summed up:
as §1

For experiment [19], the system named is NIH3T3 cells overexpressing HNF4. Description: MTT cell viability, HNF4 overexpressing cells vs parental line. As to conditions: HNF4 high-expressing cells / parental cell line, 3 to 4 days. Put shortly:
as §1

Experiment [20] concerns NIH3T3 cells overexpressing coup. Put plainly: MTT cell viability, coup overexpressing cells vs parental line. To be noted: coup high-expressing cells / parental cell line, 3 to 4 days. Summed up:
as §2

The mark [21] stands for this setting: PKCalpha-KN (first of two lines) high-expressing cells / parental cell line.
The mark [22] stands for this setting: PKCalpha-KN (second of two lines) high-expressing cells / parental cell line.

With `CCCC[C@@H](C)/C=C(C)/C=C(\C)C(=O)NC1=C[C@@](O)(/C=C/C=C/C=C/C(=O)NC2=C(O)CCC2=O)[C@@H]2O[C@@H]2C1=O` [Manumycin, manumycin], the “logarithmic value of ratio of IC40 values” in experiment [1] is listed as −0.30; in experiment [2], −0.24; in experiment [3] it was −0.09; in experiment [4] it was 0.08; in experiment [5], 0.05; in [6], 0.04. The “logarithmic value of ratio of IC40 values” in experiment [7] is 0.00; in experiment [8] it was −0.06; in [9] it was 0.04; in [10] it was 0.08; in experiment [11] it was 0.17; in experiment [12] it was 0.09. In addition, the “logarithmic value of ratio of IC40 values” in experiment [13] (setting [21]) is listed as 0.00; in [13] (setting [22]), 0.16; in experiment [14], 0.00; in [15], −0.06; in experiment [16] it was 0.00; in experiment [17] it was 0.06. The “logarithmic value of ratio of IC40 values” in [18] is listed as −0.06; in experiment [19], 0.00; in experiment [20] it was 0.09.
On to `O=[As]O` [NaAsO2, sodium arsenite], for which the “logarithmic value of ratio of IC40 values” in experiment [1] is reported as 0.04; in experiment [2], 0.08; in experiment [3], −0.19; in experiment [4] it was 0.16; in [5], −0.16; in [6], 0.03. Further, the “logarithmic value of ratio of IC40 values” is 0.15 in experiment [7]; −0.21 in experiment [8]; 0.11 in [9]; 0.18 in [10]; 0.14 in [11]; 0.21 in [12]. Further, the “logarithmic value of ratio of IC40 values” is 0.16 in experiment [13] (setting [21]); 0.22 in [13] (setting [22]); 0.00 in [14]; −0.02 in [15]; 0.00 in [16]; −0.14 in experiment [17]. Moreover, the “logarithmic value of ratio of IC40 values” in experiment [18] is given as 0.00; in experiment [19] it was 0.00; in [20] it was −0.19.
For `C=C1[C@@H](O)[C@@H]2O[C@]3(CC[C@H](/C=C/[C@@H](C)[C@@H]4CC(C)=C[C@@]5(O[C@H](C[C@@](C)(O)C(=O)O)CC[C@H]5O)O4)O3)CC[C@H]2O[C@@H]1[C@@H](O)C[C@H](C)[C@H]1O[C@@]2(CCCCO2)CC[C@H]1C` [OA, okadaic acid], the “logarithmic value of ratio of IC40 values” in [1] was 0.11; in [2], 0.04; in experiment [3], 0.00; in experiment [4], 0.06; in experiment [5], −0.08; in experiment [6], −0.10. In addition, the “logarithmic value of ratio of IC40 values” in experiment [7] was −0.52; in [8], 0.00; in [9], 0.00; in experiment [10] it was 0.06; in experiment [11], 0.16; in experiment [12] it was 0.12. Also, the “logarithmic value of ratio of IC40 values” is given as 0.09 in experiment [13] (setting [21]); 0.00 in experiment [13] (setting [22]); 0.12 in [14]; −0.02 in experiment [15]; 0.00 in experiment [16]; 0 in [17]. Moreover, the “logarithmic value of ratio of IC40 values” in [18] turned out to be 0.08; in [19], 0.08; in [20], 0.00.
